Results taken from patent US20170273922A1, “UREA AND BIS-UREA BASED COMPOUNDS AND ANALOGUES THEREOF USEFUL IN THE TREATMENT OF ANDROGEN RECEPTOR MEDIATED DISEASES OR DISORDERS” (THE ROYAL INSTITUTION FOR THE ADVACEMENT OF LEARNING/MCGILL …, priority 2014, published 2017).

What was measured:
Assay type in all cases: cell-based
[1] = MTT assay (cytotoxicity), LNCaP cells; details: human, LNCaP cells, 72 h
Procedure: (§1) MTT assays: LNCaP, 22Rv1, Du145, H1975, A549, MB231 and MCF-7 cells are maintained in RPMI 1640 supplemented with 10% FBS. Cells were seeded at a density of 6-7×10^3 cells per well in 96-well plates. After overnight incubation, cells in fresh RPMI 1640 supplemented with 10% FBS were exposed to DMSO vehicle control or test compounds at designated concentrations for 72 h. Viable cells were evaluated by MTT assays. Experiments were performed in triplicate and repeated at least twice.

[2] = MTT assay (cytotoxicity), 22Rv1 cells; details: human, 22Rv1 cells, 72 h
Procedure: as §1

[3] = MTT assay (cytotoxicity), DU145 cells; details: human, DU145 cells
Procedure: as §1

[4] = tested on: LNCaP cells; assay: MTT assay (cytotoxicity), LNCaP cells; details: 72 h
Procedure: as §1

[5] = tested on: 22Rv1 cells; assay: MTT assay (cytotoxicity), 22Rv1 cells; details: 72 h
Procedure: as §1

[6] = tested on: DU145 cells; assay: MTT assay (cytotoxicity), DU145 cells; details: 72 h
Procedure: as §1

O=C(NCCc1cccc(C(F)(F)F)c1)Nc1ccc([N+](=O)[O-])c(C(F)(F)F)c1 [Compound 448]
IC50 at 72 h ([1]; Table 2.4): 1.8 µM | IC50 at 72 h ([2]; Table 2.4): 4.5 µM | IC50 at 72 h ([3]; Table 2.4): 7.5 µM

O=C(N/C=C/c1cccc(C(F)(F)F)c1)Nc1ccc([N+](=O)[O-])cc1 [Compound 449]
IC50 ([4]; Table 2.2): 2.1 µM | IC50 ([5]; Table 2.2): 5.3 µM | IC50 ([6]; Table 2.2): 3.9 µM

CC(C)(C)OC(=O)n1cc(/C=C/NC(=O)Nc2ccc([N+](=O)[O-])c(C(F)(F)F)c2)c2ccccc21 [Compound 450]
IC50 at 72 h ([1]; Table 2.4): 1.8 µM | IC50 at 72 h ([2]; Table 2.4): 4 µM | IC50 at 72 h ([3]; Table 2.4): 4.9 µM

O=C(N/C=C/c1cccc(C(F)(F)F)c1)Nc1ccccc1NC(=O)N/C=C/c1cccc(C(F)(F)F)c1 [Compound 451]
IC50 at 72 h ([1]; Table 5.1): 2.4 µM | IC50 at 72 h ([2]; Table 5.1): 4.4 µM | IC50 at 72 h ([3]; Table 5.1): 5.4 µM

CC(C)(C)OC(=O)n1cc(/C=C/NC(=O)Nc2ccc(NC(=O)N/C=C/c3cn(C(=O)OC(C)(C)C)c4ccccc34)cc2)c2ccccc21 [Compound 452]
IC50 at 72 h ([1]; Table 5.1): > 20 µM | IC50 at 72 h ([2]; Table 5.1): > 20 µM | IC50 at 72 h ([3]; Table 5.1): 3.4 µM

O=C(N/C=C/c1cccc([N+](=O)[O-])c1)Nc1ccc([N+](=O)[O-])c(C(F)(F)F)c1 [Compound 456]
IC50 ([4]; Table 2.2): 2 µM | IC50 ([5]; Table 2.2): 4.1 µM | IC50 ([6]; Table 2.2): 5.2 µM

O=C(N/C=C/c1cccc(C(F)(F)F)c1)NCCc1cccc(C(F)(F)F)c1 [Compound 459]
IC50 at 72 h ([1]; Table 2.4): 7.1 µM | IC50 at 72 h ([3]; Table 2.4): > 10 µM

Nc1ccc(NC(=O)N/C=C/c2ccc(C(F)(F)F)cc2)cc1 [Compound 462]
IC50 ([4]; Table 2.2): 3.5 µM | IC50 ([5]; Table 2.2): 6.3 µM | IC50 ([6]; Table 2.2): 3.2 µM

N#Cc1ccc(NC(=O)N/C=C/c2cc(C(F)(F)F)cc(C(F)(F)F)c2)cc1C(F)(F)F [Compound 463]
IC50 ([4]; Table 2.2): 1.2 µM | IC50 ([5]; Table 2.2): 1 µM | IC50 ([6]; Table 2.2): 1.2 µM

N#Cc1ccc(NC(=O)N/C=C/c2cc(C(F)(F)F)ccc2C(F)(F)F)cc1C(F)(F)F [Compound 464]
IC50 ([4]; Table 2.2): 0.4 µM | IC50 ([5]; Table 2.2): 0.7 µM | IC50 ([6]; Table 2.2): 0.4 µM

N#Cc1ccc(NC(=O)Nc2ccc([N+](=O)[O-])c(C(F)(F)F)c2)cc1C(F)(F)F [Compound 465]
IC50 ([4]; LNCaP cells, Table 4.2): 4.1 µM | IC50 ([5]; 22Rv1 cells, Table 4.2): 5.2 µM | IC50 ([6]; DU145 cells, Table 4.2): 5.3 µM

N#Cc1ccc(NC(=O)N/C=C/c2cc(C(F)(F)F)ccc2C(F)(F)F)cc1 [Compound 468]
IC50 ([4]; Table 2.2): 0.9 µM | IC50 ([5]; Table 2.2): 1.9 µM | IC50 ([6]; Table 2.2): 1.5 µM

N#Cc1ccc(NC(=O)N/C=C/c2cc(C(F)(F)F)cc(C(F)(F)F)c2)cc1 [Compound 469]
IC50 ([4]; Table 2.2): 1 µM | IC50 ([5]; Table 2.2): 1.9 µM | IC50 ([6]; Table 2.2): 1.7 µM

N#Cc1ccc(NC(=O)N/C=C/c2cc(C(F)(F)F)ccc2C(F)(F)F)cn1 [Compound 480]
IC50 ([5]; Table 2.1): 1.8 µM | IC50 ([6]; Table 2.1): 1.7 µM

N#Cc1ccc(NC(=O)N/C=C/c2cc(C(F)(F)F)ccc2C(F)(F)F)nc1 [Compound 481]
IC50 ([5]; Table 2.1): 2.6 µM | IC50 ([6]; Table 2.1): 0.8 µM

N#Cc1ccc(NC(=O)N/C=C/c2cc(C(F)(F)F)cc(C(F)(F)F)c2)nc1 [Compound 483]
IC50 ([5]; Table 2.1): 2.3 µM | IC50 ([6]; Table 2.1): 2 µM

N#Cc1ccc(NC(=O)Nc2cc(C(F)(F)F)cc(C(F)(F)F)c2)cc1C(F)(F)F [Compound 494]
IC50 ([4]; LNCaP cells, Table 4.2): 0.3 µM | IC50 ([5]; 22Rv1 cells, Table 4.2): 1.6 µM | IC50 ([6]; DU145 cells, Table 4.2): 1.5 µM

N#Cc1ccc(NC(=O)Nc2cc(C(F)(F)F)cc(C(F)(F)F)c2)cc1Cl [Compound 500]
IC50 ([4]; LNCaP cells, Table 4.2): 0.2 µM | IC50 ([5]; 22Rv1 cells, Table 4.2): 0.4 µM | IC50 ([6]; DU145 cells, Table 4.2): 1.3 µM

N#Cc1ccc(NC(=O)Nc2ccc(C(F)(F)F)cc2)cc1Cl [Compound 502]
IC50 ([4]; LNCaP cells, Table 4.2): 1.2 µM | IC50 ([5]; 22Rv1 cells, Table 4.2): 2.2 µM | IC50 ([6]; DU145 cells, Table 4.2): 4.1 µM

O=C(N/C=C/c1cc(C(F)(F)F)cc(C(F)(F)F)c1)Nc1cccnc1 [Compound 503]
IC50 ([4]; Table 2.1): 7.5 µM | IC50 ([5]; Table 2.1): 11.3 µM | IC50 ([6]; Table 2.1): 9.5 µM

N#Cc1ccc(NC(=O)Nc2ccc(C(F)(F)F)cc2)cc1C(F)(F)F [Compound 509]
IC50 ([4]; LNCaP cells, Table 4.2): 0.7 µM | IC50 ([5]; 22Rv1 cells, Table 4.2): 1.6 µM | IC50 ([6]; DU145 cells, Table 4.2): 5.4 µM

N#Cc1ccc(NC(=O)N/C=C/c2cccc(C(F)(F)F)c2)cn1 [Compound 510]
IC50 ([4]; Table 2.1): 3.3 µM | IC50 ([5]; Table 2.1): 6.6 µM | IC50 ([6]; Table 2.1): 5.7 µM

O=C(N/C=C/c1cc(C(F)(F)F)cc(C(F)(F)F)c1)Nc1ncccc1Br [Compound 527]
IC50 ([4]; Table 2.1): 5.3 µM | IC50 ([5]; Table 2.1): 7.6 µM | IC50 ([6]; Table 2.1): 6.8 µM

O=C(N/C=C/c1cc(C(F)(F)F)cc(C(F)(F)F)c1)Nc1ncccn1 [Compound 531]
IC50 ([4]; Table 2.1): < 1 µM | IC50 ([6]; Table 2.1): < 1 µM

O=C(N/C=C/c1cc(C(F)(F)F)cc(C(F)(F)F)c1)Nc1cnccc1Cl [Compound 533]
IC50 ([4]; Table 2.1): 2 µM | IC50 ([5]; Table 2.1): 10.9 µM | IC50 ([6]; Table 2.1): 6.5 µM

O=C(N/C=C/c1cc(C(F)(F)F)cc(C(F)(F)F)c1)Nc1cncc(F)c1 [Compound 535]
IC50 ([4]; Table 2.1): 2.6 µM | IC50 ([5]; Table 2.1): 3.1 µM | IC50 ([6]; Table 2.1): 3 µM

O=C(N/C=C/c1cc(C(F)(F)F)cc(C(F)(F)F)c1)Nc1nccc(C(F)(F)F)n1 [Compound 538]
IC50 ([4]; Table 2.1): < 1 µM | IC50 ([6]; Table 2.1): 1.2 µM
